Test results from BindingDB's records for doi:10.7270/Q2PK0DK8 (Nmmlsc, 2009).

Target: Ras-related C3 botulinum toxin substrate 1 (Mus musculus, UniProt P63001)
Test: analog inhibition of wildtype Rac1 nucleotide binding – biochemical, oxadiazole analogs, multiplex bead flow cytometry, SAR follow-up (AID 2027)
Settings: not given

Structure (SMILES) | EC50
Cc1ccc(C)c(N2CCN(C(=O)CCc3nc(-c4ccccc4Br)no3)CC2)c1 [3-[3-(2-bromophenyl)-1,2,4-oxadiazol-5-yl]-1-[4-(2,5-dimethylphenyl)-1-piperazinyl]-1-propanone] | 1710 nM
COc1ccc(-c2cc(CCC(=O)N3CCN(c4cc(C)ccc4C)CC3)[nH]n2)cc1 [UNM-0000306150] | > 30000 nM
Cc1ccc(C)c(N2CCN(C(=O)CCc3nc(-c4ccc(Br)cc4)no3)CC2)c1 [UNM-0000306072] | 2970 nM
COc1ccc(-c2noc(CCC(=O)N3CCN(c4ccccc4F)CC3)n2)cc1 [1-[4-(2-fluorophenyl)piperazin-1-yl]-3-[3-(4-methoxyphenyl)-1,2,4-oxadiazol-5-yl]propan-1-one] | 1110 nM
Cc1ccc(C)c(N2CCN(C(=O)CCc3nc(-c4ccccc4C(F)(F)F)no3)CC2)c1 | 2110 nM
Cc1ccc(C)c(N2CCN(C(=O)CCc3nc(-c4cccc(F)c4)no3)CC2)c1 [KUC103366N] | 1480 nM
COc1ccc(-c2noc(CCC(=O)N3CCN(c4cccc(C(F)(F)F)c4)CC3)n2)cc1 [1-{3-[3-(4-methoxyphenyl)-1,2,4-oxadiazol-5-yl]propanoyl}-4-[3-(trifluoromethyl)phenyl]piperazine] | > 30000 nM
Cc1ccc(C)c(N2CCN(C(=O)CCc3nc(-c4ccc(N(C)C)cc4)no3)CC2)c1 [KUC103409N] | 2770 nM
COc1ccc(-c2noc(CCCC(=O)N3CCN(c4cc(C)ccc4C)CC3)n2)cc1 [KUC103353N] | 3790 nM
Cc1ccc(C)c(N2CCN(C(=O)CCc3nc(-c4ccccc4F)no3)CC2)c1 [KUC103401N] | 1820 nM
Cc1cccc(-c2noc(CCC(=O)N3CCN(c4cc(C)ccc4C)CC3)n2)c1 [1-[4-(2,5-dimethylphenyl)piperazin-1-yl]-3-[3-(3-methylphenyl)-1,2,4-oxadiazol-5-yl]propan-1-one] | 1220 nM
COc1ccc(-c2coc(CCC(=O)N3CCN(c4cc(C)ccc4C)CC3)n2)cc1 [1-[4-(2,5-dimethylphenyl)piperazin-1-yl]-3-[4-(4-methoxyphenyl)-1,3-oxazol-2-yl]propan-1-one] | 2200 nM
Cc1ccc(C)c(N2CCN(C(=O)CCc3nc(-c4ccc(C(F)(F)F)cc4)no3)CC2)c1 [1-[4-(2,5-dimethylphenyl)-1-piperazinyl]-3-[3-[4-(trifluoromethyl)phenyl]-1,2,4-oxadiazol-5-yl]-1-propanone] | 2190 nM
COc1ccc(-c2noc(CCC(=O)N3CCN(c4ccccc4Br)CC3)n2)cc1 [KUC103370N] | 1700 nM
COc1ccc(-c2ccc(CCC(=O)N3CCN(c4cc(C)ccc4C)CC3)[nH]2)cc1 [1-[4-(2,5-dimethylphenyl)piperazin-1-yl]-3-[5-(4-methoxyphenyl)-1H-pyrrol-2-yl]propan-1-one] | > 30000 nM
COc1ccc(-c2noc(CCC(=O)N3CCN(c4ccccc4C(F)(F)F)CC3)n2)cc1 [UNM-0000306082] | 1690 nM
COc1cccc(-c2noc(CCC(=O)N3CCN(c4cc(C)ccc4C)CC3)n2)c1 | 6120 nM
Cc1ccc(C)c(N2CCN(C(=O)CCc3nc(-c4cccc(Br)c4)no3)CC2)c1 [KUC103367N] | 1670 nM
Cc1ccc(C)c(N2CCN(C(=O)CCc3nc(-c4cccc(Cl)c4)no3)CC2)c1 [UNM-0000306086] | 4970 nM
COc1ccc(-c2noc(CCC(=O)N3CCN(c4ccc(C(F)(F)F)cc4)CC3)n2)cc1 [3-[3-(4-methoxyphenyl)-1,2,4-oxadiazol-5-yl]-1-[4-[4-(trifluoromethyl)phenyl]piperazin-1-yl]propan-1-one] | > 30000 nM
COc1ccc(-c2cc(CCC(=O)N3CCN(c4cc(C)ccc4C)CC3)on2)cc1 [1-[4-(2,5-dimethylphenyl)piperazin-1-yl]-3-[3-(4-methoxyphenyl)-1,2-oxazol-5-yl]propan-1-one] | > 30000 nM
COc1ccc(-c2noc(CCC(=O)N3CCN(c4cccc(OC)c4)CC3)n2)cc1 [KUC103349N] | > 30000 nM

Structure (SMILES) | EC50
COc1ccc(-c2noc(CCC(=O)N3CCN(c4cccc(C)c4C)CC3)n2)cc1 [1-[4-(2,3-dimethylphenyl)-1-piperazinyl]-3-[3-(4-methoxyphenyl)-1,2,4-oxadiazol-5-yl]-1-propanone] | 1310 nM
Cc1ccc(C)c(N2CCN(C(=O)CCc3nc(-c4cccc(C(F)(F)F)c4)no3)CC2)c1 [KUC103380N] | 2500 nM
Cc1ccc(C)c(N2CCN(C(=O)CCc3nc(-c4ccccc4C)no3)CC2)c1 | 1730 nM
COc1ccc(-c2noc(CCC(=O)N3CCN(c4ccccc4Cl)CC3)n2)cc1 [1-[4-(2-chlorophenyl)piperazin-1-yl]-3-[3-(4-methoxyphenyl)-1,2,4-oxadiazol-5-yl]propan-1-one] | 3340 nM
Cc1ccc(-c2noc(CCC(=O)N3CCN(c4cc(C)ccc4C)CC3)n2)cc1 [1-[4-(2,5-dimethylphenyl)-1-piperazinyl]-3-[3-(4-methylphenyl)-1,2,4-oxadiazol-5-yl]-1-propanone] | 3200 nM
Cc1ccc(C)c(N2CCN(C(=O)CCc3nc(-c4ccccc4Cl)no3)CC2)c1 [3-[3-(2-chlorophenyl)-1,2,4-oxadiazol-5-yl]-1-[4-(2,5-dimethylphenyl)-1-piperazinyl]-1-propanone] | 1190 nM
COc1ccc(-c2noc(CCC(=O)N3CCN(c4ccccc4)CC3)n2)cc1 [3-[3-(4-methoxyphenyl)-1,2,4-oxadiazol-5-yl]-1-(4-phenylpiperazin-1-yl)propan-1-one] | > 30000 nM
COc1ccc(-c2noc(CCC(=O)N3CCN(c4ccc(Cl)cc4)CC3)n2)cc1 [UNM-0000306121] | > 30000 nM
COc1ccc(-c2noc(CCC(=O)N3CCC(c4cc(C)ccc4C)CC3)n2)cc1 [KUC103432N] | 1220 nM
COc1ccc(-c2noc(CCC(=O)N3CCN(c4cccc(Cl)c4)CC3)n2)cc1 | > 30000 nM
Cc1ccc(C)c(N2CCN(C(=O)CCc3nc(-c4ccc(F)cc4)no3)CC2)c1 [KUC103364N] | 1270 nM
Cc1ccc(C)c(N2CCN(C(=O)CCc3nc(-c4ccc(Cl)cc4)no3)CC2)c1 [UNM-0000306083] | 1830 nM
COc1ccc(-c2noc(CCC(=O)N3CCN(c4cc(C)ccc4C)CC3)n2)cc1 [1-[4-(2,5-dimethylphenyl)-1-piperazinyl]-3-[3-(4-methoxyphenyl)-1,2,4-oxadiazol-5-yl]-1-propanone] | 5080 nM
COc1ccc(-c2ccc(CCC(=O)N3CCN(c4cc(C)ccc4C)CC3)o2)cc1 [KUC103447N] | > 30000 nM
COc1ccc(-c2noc(CCC(=O)N3CCN(c4cccc(Br)c4)CC3)n2)cc1 [1-[4-(3-bromophenyl)-1-piperazinyl]-3-[3-(4-methoxyphenyl)-1,2,4-oxadiazol-5-yl]-1-propanone] | > 30000 nM
COc1ccc(-c2ccc(CCC(=O)N3CCN(c4cc(C)ccc4C)CC3)s2)cc1 | > 30000 nM
COc1ccc(-c2noc(CCC(=O)N3CCN(c4ccccc4C)CC3)n2)cc1 | 1350 nM
COc1ccc(-c2noc(CCC(=O)N3CCN(c4cccc(F)c4)CC3)n2)cc1 [1-[4-(3-fluorophenyl)piperazin-1-yl]-3-[3-(4-methoxyphenyl)-1,2,4-oxadiazol-5-yl]propan-1-one] | > 30000 nM
COc1ccc(-c2cccc(CCC(=O)N3CCN(c4cc(C)ccc4C)CC3)c2)cc1 [UNM-0000306127] | > 30000 nM
COc1ccc(-c2noc(CCCCC(=O)N3CCN(c4cc(C)ccc4C)CC3)n2)cc1 [1-[4-(2,5-dimethylphenyl)-1-piperazinyl]-5-[3-(4-methoxyphenyl)-1,2,4-oxadiazol-5-yl]-1-pentanone] | 21000 nM
COc1ccc(-c2noc(CCC(=O)N3CCN(c4cccc(C)c4)CC3)n2)cc1 [UNM-0000306125] | > 30000 nM

Same assay, conditions: inactive by the depositor's call

Structure (SMILES) | EC50
COc1ccc(-c2noc(CCC(=O)N3CCN(c4ccc(Br)cc4)CC3)n2)cc1 [1-[4-(4-bromophenyl)piperazin-1-yl]-3-[3-(4-methoxyphenyl)-1,2,4-oxadiazol-5-yl]propan-1-one] | 257 nM
COc1ccc(-c2noc(CCC(=O)N3CCN(c4ccc(OC)cc4)CC3)n2)cc1 [3-[3-(4-methoxyphenyl)-1,2,4-oxadiazol-5-yl]-1-[4-(4-methoxyphenyl)piperazin-1-yl]propan-1-one] | 527 nM
COc1ccc(-c2noc(CCC(=O)N3CCN(c4ccc(C)cc4)CC3)n2)cc1 [3-[3-(4-methoxyphenyl)-1,2,4-oxadiazol-5-yl]-1-[4-(4-methylphenyl)piperazin-1-yl]propan-1-one] | 2690 nM
COc1ccc(-c2noc(CCC(=O)N3CCN(c4ccccc4OC)CC3)n2)cc1 [3-[3-(4-methoxyphenyl)-1,2,4-oxadiazol-5-yl]-1-[4-(2-methoxyphenyl)-1-piperazinyl]-1-propanone] | 2290 nM
Cc1ccc(C)c(N2CCN(C(=O)CCc3nc(-c4ccccc4)no3)CC2)c1 [UNM-0000306070] | 1640 nM
COc1ccc(-c2noc(CC(=O)N3CCN(c4cc(C)ccc4C)CC3)n2)cc1 [1-[4-(2,5-dimethylphenyl)piperazin-1-yl]-2-[3-(4-methoxyphenyl)-1,2,4-oxadiazol-5-yl]ethanone] | 7520 nM
COc1ccccc1-c1noc(CCC(=O)N2CCN(c3cc(C)ccc3C)CC2)n1 [UNM-0000306071] | 15100 nM
COc1ccc(-c2noc(CCC(=O)N3CCN(c4ccc(F)cc4)CC3)n2)cc1 [KUC103398N] | 1590 nM
